Experimental data published in patent US7943139B2, “Methods of generating a humoral immune response against human immunodeficiency virus (HIV) comprising administering Nef apoptotic motif-containing polypeptide-conjugates” (priority 2004, dated 2011).
Where no end group is shown, it is not given here.

How the values were obtained:
thymus = assay: Mouse thymus apoptosis after ip peptide for one month; assay type: in vivo, mice; settings: ip injection for one month
Procedure: Nef motif 1 was administered to mice for one month by ip injection with either Nef motif 1 (Seq. ID No. 19), the 11 mer sequence or the scrambled apoptotic sequence Seq. ID No. 18. […] This provides further indication of the ability of the Nef protein to inhibit immune response related to CD4+ peripheral blood lymphocytes.

peripheral lymphocytes = assay: KLH-M1 pre-immunization and Nef peptide challenge: PBL depletion and humoral response; assay type: in vivo, mice
Procedure: Nef Motif 1 peptides linked to keyhole limpet […] (KLH) were administered to 9 mice. Subsequently, the pre-immunized mice and the naive mice were either unchallenged or challenged with Nef peptide for a month. The mice were sacrificed and the PBLs collected.

Jurkat cell cultures = assay: Nef peptide apoptosis screen (TUNEL); assay type: cell-based; settings: 24 hours; for apoptosis induced by Nef 20 mer peptides: 10 ng/ml
Procedure: Apoptosis generates DNA free ends which can be labeled in situ using terminal deoxynucleotidyl-transferase (TdT), incorporating an exogenously added labeled nucleotide to the DNA strand. This label can then be visualized directly by fluorescence or indirectly using anti-FITC-peroxidase, and a calorimetric assay. Cells on coverslips were washed with PBS, and fixed for 30 minutes at RT with 4% paraformaldehyde, in PBS, pH 7.4. They were then washed with PBS, and permeabilized with 0.1% Triton X-100 for 10 minutes at room temperature (RT). The slides were rinsed twice with PBS, and air dried for 2 minutes. Then, we followed precisely the manufacturers procedure for TUNEL staining the slides (manufacturer's procedure for the In Situ Cell Death Detection Kit, AP; Boehringer Mannheim, Indianapolis, Ind.). Total cell counts were determined by counterstaining fixed cultures with 20 μg/ml of Hoechst 33258. All specimens were observed by epifluorescence on a computer-controlled microscope system based on a Zeiss Axioskop microscope (Carl Zeiss, Thornwood, N.Y.), and the images were obtained and examined using a charged coupled device (CCD) camera, MagnaFire, model S99806 (Olympus American, Melville, N.Y.). Images were examined using Image-Pro Plus 4.1 for Windows (Media Cybernetics, Silver Springs, Md.) software.
Nef peptides retain much of the binding and signaling activity of the full molecule. A set of 20 mer peptides with 10 aa overlaps, spanning the Nef protein (205 aa), were obtained from the AIDS Reagent Program. Jurkat cell cultures were exposed to each of the Nef peptides at 10 ng/ml for 24 hours, and screened for apoptosis. One peak of apoptosis was observed spanning peptide aa31-50 to […], peaking at aa41-60 and aa51-70. […] Two regions of the Nef protein that induce apoptosis were identified; (1) a major apoptotic peak centering on aa50-60 (motif 1); (2) a minor peak centering on aa170-180 (motif 2). (aa sequence from HIV-1B clade NL403, Ass. No. AF070521) To determine the specificity of the apoptotic motifs, two 11 mer peptides spanning motif 1, were made, one with the correctly ordered sequence (Nef Motif 1-[…]) (Seq. ID No. 17), and the other with the correct amino acids scrambled in random order (Nef scMotif 1-[…]) (Seq. ID No. 18). Jurkat cell cultures were exposed to each of the two peptides at 8 ng/ml for 24 hours, and screened for apoptosis by TUNEL assay. Nef Motif 1 peptide induced 82% of the apoptosis observed using the full Nef protein. […] Thus, (a) Nef aa50-60 is sufficient to bind and induce an apoptotic signal; (b) induction of apoptosis is primary sequence specific. In some of the studies disclosed herein the Nef Motif 1 having an extra acid, namely […] (Seq. ID No. 19) was administered. In this report, Seq. ID No. 17 and Seq. ID No. 19 are both referred to as M-1 or Nef Motif-1 peptide.

CXCR4 receptor = target: T1, CXCR4 receptor (Homo sapiens, UniProt P61073); assay: Fluorescent binding assay with Flc labeled M1 peptide on transfected MDA-MB-468 cells
T1 construct: transiently transfected with a CXCR4 cDNA clone; expressed in transfected cells; host or cells: MDA-MB-468 (human breast tumour line, lacks endogenous CXCR4), transient transfection
Procedure: Specific physical binding to CXCR4 was assayed. The above transfection experiment (MDA-MB-468 cultures either untransfected, or transiently transfected with a CXCR4 cDNA clone, empty vector, or CCR5 cDNA clone) was assayed in the fluorescent binding assay with the Flc labeled M1 peptide.

T1 sequence (P61073 whole entry): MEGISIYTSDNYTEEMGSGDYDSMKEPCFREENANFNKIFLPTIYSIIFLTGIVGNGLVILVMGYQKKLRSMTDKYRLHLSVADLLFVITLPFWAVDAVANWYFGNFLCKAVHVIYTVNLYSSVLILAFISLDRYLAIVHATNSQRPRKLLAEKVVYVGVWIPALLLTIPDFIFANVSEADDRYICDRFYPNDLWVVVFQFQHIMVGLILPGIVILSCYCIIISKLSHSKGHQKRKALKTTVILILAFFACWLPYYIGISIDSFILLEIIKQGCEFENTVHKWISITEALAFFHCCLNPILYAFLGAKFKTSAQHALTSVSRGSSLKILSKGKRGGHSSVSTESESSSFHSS

TNAACAWLEAQ [Nef motif 1 (Seq. ID No. 19)]
apoptosis in the thymus (thymus): Significant apoptosis

NAACAWLEAQ [Nef Motif 1, Peptide spanning apoptotic motif 1 (aa50-60) of HIV-1 Nef]
peripheral lymphocyte depletion (peripheral lymphocytes; mice challenged with Nef peptide for a month, PBLs collected): induced peripheral lymphocyte depletion
protective humoral response against the Nef epitope (peripheral lymphocytes; mice, naive or pre-immunized): did not stimulate a resultant protective humoral response
apoptosis relative to that observed using the full Nef protein (Jurkat cell cultures; 8 ng/ml, TUNEL): 82%

aa171-190: Nef 20 mer overlapping peptide, residues 171-190, AIDS Reagent Program (HGMDDPEREVLEWRFDSRLA; UniProt P04601 171-190, looked up, fragment)
apoptosis induced by Nef 20 mer peptides (Jurkat cell cultures): second, smaller apoptotic peak

aa51-70: Nef 20 mer overlapping peptide, residues 51-70, AIDS Reagent Program
apoptosis induced by Nef 20 mer peptides (Jurkat cell cultures): peaking

ALAETCQNAWA [Nef scMotif 1, Motif 1 amino acids scrambled in random order, reference compound]
apoptosis in the thymus (thymus): No apoptosis
apoptosis (TUNEL) (Jurkat cell cultures; 8 ng/ml, compared with untreated control): only background levels of apoptosis

Flc-M1 peptide: Flc labeled M1 peptide used in the fluorescent binding assay (NAACAWLEAQ; also: Flc label, place not given here)
binding of the Flc-M1 peptide (CXCR4 receptor; MDA-MB-468 cells transiently transfected with CCR5 cDNA): refractory to binding
binding of the Flc-M1 peptide (CXCR4 receptor; MDA-MB-468 cells transiently transfected with empty vector): refractory to binding
binding of the Flc-M1 peptide (CXCR4 receptor; MDA-MB-468 cells transiently transfected with the CXCR4 clone): significant binding
binding of the Flc-M1 peptide (CXCR4 receptor; untransfected MDA-MB-468 cells): refractory to binding

aa161-180: Nef 20 mer overlapping peptide, residues 161-180, AIDS Reagent Program (NTSLLHPVSLHGMDDPEREV; UniProt P04601 161-180, looked up, fragment)
apoptosis induced by Nef 20 mer peptides (Jurkat cell cultures): second, smaller apoptotic peak

aa41-60: Nef 20 mer overlapping peptide, residues 41-60, AIDS Reagent Program (GAITSSNTAATNAACAWLEA; UniProt P04601 41-60, looked up, fragment)
apoptosis induced by Nef 20 mer peptides (Jurkat cell cultures): peaking
